{"source": "ChEMBL document CHEMBL1201862", "about": "“PubChem BioAssay data set” (2004)", "key": {"[1]": {"molecular_target": "Beta-galactosidase (Escherichia coli, UniProt Q8VNN2)", "sequence (Q8VNN2 whole entry)": "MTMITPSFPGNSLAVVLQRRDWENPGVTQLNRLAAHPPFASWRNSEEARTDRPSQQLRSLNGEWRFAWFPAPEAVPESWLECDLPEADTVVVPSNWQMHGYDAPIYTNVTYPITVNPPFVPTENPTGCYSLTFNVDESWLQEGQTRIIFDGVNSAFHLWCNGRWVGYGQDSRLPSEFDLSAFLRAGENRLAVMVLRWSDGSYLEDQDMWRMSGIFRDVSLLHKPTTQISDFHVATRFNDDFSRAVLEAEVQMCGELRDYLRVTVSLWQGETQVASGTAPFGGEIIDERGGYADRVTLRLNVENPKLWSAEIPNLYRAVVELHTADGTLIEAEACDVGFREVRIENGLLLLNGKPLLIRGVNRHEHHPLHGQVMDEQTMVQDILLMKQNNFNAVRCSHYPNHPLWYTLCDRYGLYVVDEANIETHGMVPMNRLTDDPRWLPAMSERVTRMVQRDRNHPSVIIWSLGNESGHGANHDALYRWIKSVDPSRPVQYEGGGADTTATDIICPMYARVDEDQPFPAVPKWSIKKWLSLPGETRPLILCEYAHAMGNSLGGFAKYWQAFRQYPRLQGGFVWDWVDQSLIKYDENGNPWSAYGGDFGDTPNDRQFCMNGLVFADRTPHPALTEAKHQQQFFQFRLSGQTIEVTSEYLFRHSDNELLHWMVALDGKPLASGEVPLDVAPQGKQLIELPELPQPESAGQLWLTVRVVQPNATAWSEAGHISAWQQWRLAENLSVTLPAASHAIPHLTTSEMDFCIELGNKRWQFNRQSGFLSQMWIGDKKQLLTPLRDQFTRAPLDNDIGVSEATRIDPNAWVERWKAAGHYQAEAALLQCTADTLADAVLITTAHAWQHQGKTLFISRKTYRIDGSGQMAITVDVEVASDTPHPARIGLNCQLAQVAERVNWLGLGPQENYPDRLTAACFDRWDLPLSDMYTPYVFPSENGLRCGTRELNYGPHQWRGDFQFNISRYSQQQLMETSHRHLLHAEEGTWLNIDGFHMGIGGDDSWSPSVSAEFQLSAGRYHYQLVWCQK", "assay": "Dose response counterscreen for EBI2 assay utilizing the enzyme, b-galactosidase.", "type": "functional"}, "[2]": {"molecular_target": "T1, Endoribonuclease toxin MazF (Escherichia coli K-12, UniProt P0AE70)", "T1 sequence (P0AE70 whole entry)": "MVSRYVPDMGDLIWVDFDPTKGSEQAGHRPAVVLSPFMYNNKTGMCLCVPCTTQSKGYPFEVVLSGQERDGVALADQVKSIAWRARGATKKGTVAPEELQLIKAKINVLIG", "assay": "substrate-only fluorescence increase artefacts – biochemical, single-stranded RNase substrate, counter-screen for MazEF activator project, dose response (AID 588502)", "type": "functional"}, "[3]": {"molecular_target": "T1, Endoribonuclease toxin MazF", "assay": "activation of MazEF endoribonuclease cleavage – biochemical, fluorescence, single-stranded RNA substrate, uHTS hits, dose response (AID 588481)", "type": "functional"}, "[4]": {"molecular_target": "Melanocortin receptor 4 (Homo sapiens, UniProt P32245)", "sequence (P32245 whole entry)": "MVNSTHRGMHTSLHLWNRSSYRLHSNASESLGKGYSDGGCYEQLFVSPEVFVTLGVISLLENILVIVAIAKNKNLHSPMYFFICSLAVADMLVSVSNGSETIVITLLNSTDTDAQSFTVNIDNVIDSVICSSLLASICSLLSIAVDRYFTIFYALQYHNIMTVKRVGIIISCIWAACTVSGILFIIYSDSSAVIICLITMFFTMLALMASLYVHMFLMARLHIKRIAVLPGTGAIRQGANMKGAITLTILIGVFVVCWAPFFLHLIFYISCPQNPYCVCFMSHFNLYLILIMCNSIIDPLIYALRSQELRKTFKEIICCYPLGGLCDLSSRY", "type": "functional, cell-based"}, "[5]": {"molecular_target": "T2, Mitochondrial peptide methionine sulfoxide reductase (Bos taurus, UniProt P54149)", "T2 sequence (P54149 whole entry)": "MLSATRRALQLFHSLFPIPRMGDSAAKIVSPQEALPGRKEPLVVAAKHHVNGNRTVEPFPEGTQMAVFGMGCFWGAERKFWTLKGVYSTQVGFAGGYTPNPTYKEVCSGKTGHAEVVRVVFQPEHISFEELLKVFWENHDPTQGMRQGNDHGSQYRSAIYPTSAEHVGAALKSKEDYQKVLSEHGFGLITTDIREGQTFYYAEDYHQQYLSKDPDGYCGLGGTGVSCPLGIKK", "type": "functional"}, "[6]": {"molecular_target": "T3, Sentrin-specific protease 1 (Homo sapiens, UniProt Q9P0U3)", "T3 sequence (Q9P0U3 whole entry)": "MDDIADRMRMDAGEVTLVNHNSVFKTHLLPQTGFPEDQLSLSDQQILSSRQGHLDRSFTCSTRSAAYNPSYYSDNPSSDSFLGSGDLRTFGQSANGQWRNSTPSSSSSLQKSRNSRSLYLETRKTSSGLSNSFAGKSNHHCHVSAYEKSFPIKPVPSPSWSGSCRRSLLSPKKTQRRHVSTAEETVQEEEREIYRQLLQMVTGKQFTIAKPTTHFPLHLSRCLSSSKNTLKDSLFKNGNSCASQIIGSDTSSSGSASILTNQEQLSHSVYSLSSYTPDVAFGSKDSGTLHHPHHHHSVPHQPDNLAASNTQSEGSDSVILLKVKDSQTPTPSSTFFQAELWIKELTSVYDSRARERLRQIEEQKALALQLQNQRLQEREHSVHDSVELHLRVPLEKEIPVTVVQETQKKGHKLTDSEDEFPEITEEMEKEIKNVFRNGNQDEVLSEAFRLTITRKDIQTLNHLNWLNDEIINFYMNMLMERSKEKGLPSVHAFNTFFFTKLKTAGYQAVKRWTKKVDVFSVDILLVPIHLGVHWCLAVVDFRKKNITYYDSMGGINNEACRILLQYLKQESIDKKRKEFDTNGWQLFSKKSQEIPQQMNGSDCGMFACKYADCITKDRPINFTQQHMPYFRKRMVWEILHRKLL", "assay": "Dose response confirmation of small molecule inhibitors of the catalytic domain of the SUMO protease, SENP1 in a FRET assay.", "type": "functional", "settings": "read-out: IC50_Mean"}, "[7]": {"molecular_target": "T3, Sentrin-specific protease 1", "assay": "SENP1 catalytic domain blockers, concentration series – biochemical, kinetic FRET, dose response (AID 651697)", "type": "functional", "settings": "read-out: IC50_Mean"}, "[8]": {"molecular_target": "T4, High affinity choline transporter 1 (Homo sapiens, UniProt Q9GZV3)", "T4 sequence (Q9GZV3 whole entry)": "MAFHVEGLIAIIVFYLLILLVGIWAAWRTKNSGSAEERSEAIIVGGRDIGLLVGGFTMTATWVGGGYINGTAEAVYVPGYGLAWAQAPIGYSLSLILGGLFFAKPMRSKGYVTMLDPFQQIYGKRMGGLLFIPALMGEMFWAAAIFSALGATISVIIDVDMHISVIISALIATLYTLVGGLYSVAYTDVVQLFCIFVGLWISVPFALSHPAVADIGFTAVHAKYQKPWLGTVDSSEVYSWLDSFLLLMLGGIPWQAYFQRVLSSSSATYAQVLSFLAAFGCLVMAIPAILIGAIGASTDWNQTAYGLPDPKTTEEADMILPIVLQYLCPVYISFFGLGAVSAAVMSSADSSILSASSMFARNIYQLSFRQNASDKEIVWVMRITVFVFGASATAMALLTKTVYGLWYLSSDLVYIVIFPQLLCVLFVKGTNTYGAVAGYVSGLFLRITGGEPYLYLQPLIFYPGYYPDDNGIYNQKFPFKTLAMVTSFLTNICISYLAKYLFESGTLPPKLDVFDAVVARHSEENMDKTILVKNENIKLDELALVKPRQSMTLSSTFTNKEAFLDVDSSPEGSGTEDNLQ", "assay": "human choline transporter blockers, potency – cell-based, 10-point CRC, membrane potential dye, dose response (AID 588401);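 note: membrane potential dye fluorescence of choline-evoked depolarization via CHT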", "type": "functional"}, "[9]": {"molecular_target": "T4, High affinity choline transporter 1", "assay": "human choline transporter blockers, potency – cell-based, 5-point CRC, membrane potential dye, dose response (AID 504840)", "type": "functional"}, "[10]": {"molecular_target": "Long-chain-fatty-acid--AMP ligase FadD28 (Mycobacterium tuberculosis, UniProt P9WQ59)", "sequence (P9WQ59 whole entry)": "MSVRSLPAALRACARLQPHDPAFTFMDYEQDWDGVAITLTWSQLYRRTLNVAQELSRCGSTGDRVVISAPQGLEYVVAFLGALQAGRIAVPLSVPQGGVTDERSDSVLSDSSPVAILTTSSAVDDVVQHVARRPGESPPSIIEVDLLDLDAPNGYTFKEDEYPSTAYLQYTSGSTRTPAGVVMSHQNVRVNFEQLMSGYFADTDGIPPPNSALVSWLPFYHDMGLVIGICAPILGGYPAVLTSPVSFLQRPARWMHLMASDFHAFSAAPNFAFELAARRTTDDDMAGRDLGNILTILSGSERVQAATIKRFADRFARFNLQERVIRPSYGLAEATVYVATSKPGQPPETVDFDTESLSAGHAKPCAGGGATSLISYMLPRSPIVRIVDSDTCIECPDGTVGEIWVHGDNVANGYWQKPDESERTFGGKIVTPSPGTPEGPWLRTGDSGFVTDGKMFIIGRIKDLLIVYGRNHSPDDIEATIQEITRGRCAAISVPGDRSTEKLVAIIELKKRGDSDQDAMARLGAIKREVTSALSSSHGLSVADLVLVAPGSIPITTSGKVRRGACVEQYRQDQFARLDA", "assay": "Fluorescence polarization aasay to screen for inhibitors that compete for the binding of FadD28 to a bisubstrate Measured in Biochemical System Using Plate Reader - 2147-01_Inhibitor_Dose_CherryPick_Activity.", "type": "functional, Mycobacterium tuberculosis H37Rv"}, "[11]": {"assay": "NIH3T3 cell viability loss – ATP luminescence, mouse fibroblasts, counter-screen, dose response (AID 2010);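 note: cells exposed to compound for about 90 hours before reading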", "type": "functional, cell-based"}, "[12]": {"assay": "non-specific 3'UTR reporter inhibition in Clone20-Shn3RL – cell-based, Renilla luciferase, cherry-picked, counter-screen for Shn3 inhibitor project, dose response (AID 624133)", "type": "functional"}, "[13]": {"molecular_target": "Protein Wnt-3a (Mus musculus, UniProt P27467)", "sequence (P27467 whole entry)": "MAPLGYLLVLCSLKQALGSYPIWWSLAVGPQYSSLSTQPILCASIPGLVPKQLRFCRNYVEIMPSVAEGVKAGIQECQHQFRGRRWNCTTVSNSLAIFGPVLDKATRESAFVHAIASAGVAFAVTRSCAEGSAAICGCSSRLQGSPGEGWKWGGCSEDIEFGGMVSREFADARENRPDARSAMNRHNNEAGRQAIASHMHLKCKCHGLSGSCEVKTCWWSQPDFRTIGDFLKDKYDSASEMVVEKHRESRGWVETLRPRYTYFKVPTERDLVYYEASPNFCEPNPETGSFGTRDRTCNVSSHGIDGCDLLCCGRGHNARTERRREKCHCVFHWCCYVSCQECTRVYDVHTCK", "assay": "antagonism of Wnt3a pathway luciferase reporter – Wnt-LIGHT cells, luminescence, selectivity assay for Gli-SUFU antagonist project, dose response (AID 651570);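 note: Wnt-LIGHT reporter cells stimulated with conditioned medium from Wnt3a-producing cells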", "type": "functional", "settings": "read-out: IC50_Mean"}, "[14]": {"assay": "Trypanosoma cruzi growth suppression in host cells – NIH3T3 host cells, beta-gal luminescence, confirmation (AID 2044);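 note: intracellular parasites grown in NIH/3T3 mouse fibroblasts as host cells; luminescent beta-galactosidase reporter signal from transgenic T. cruzi replicating inside host cells; inhibitors lower the luminescence signal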", "type": "functional, cell-based"}, "[15]": {"assay": "loss of viability in HepG2 cells – cell-based, CellTiter-Glo, cherry-picked, cytotoxicity control for Shn3 inhibitor project, dose response (AID 624134)", "type": "functional"}, "[16]": {"assay": "reduction of Shn3 3'UTR-driven luciferase in osteoblasts – cell-based, Clone20 osteoblasts, firefly luciferase, cherry-picked, dose response (AID 624132)", "type": "functional"}}, "note": "Activity calls are given as the source filed them."}
{"compound": "COc1ccc(OCC(=O)Nc2ccc(N3CCOCC3)cc2)cc1", "values": [{"measurement": "IC50", "setting": "[1]", "value": "> 80 µM (inactive)"}]}
{"compound": "COc1ccc(Nc2nc3ccc(C)cc3cc2C#N)c(OC)c1", "values": [{"measurement": "EC50", "setting": "[2]", "value": "14.2 µM (active)"}, {"measurement": "EC50", "setting": "[3]", "value": "34.1 µM (inactive)"}]}
{"compound": "O=C1OC(c2ccccc2)(c2cc(Br)ccc2O)c2ccccc21", "note": "(stereo not given)", "values": [{"measurement": "EC50", "setting": "[4]", "value": "> 89.2 µM (inactive)"}]}
{"compound": "C/C(CC(C)C)=N/Nc1ccc([N+](=O)[O-])cc1[N+](=O)[O-]", "values": [{"measurement": "IC50", "setting": "[5]", "value": "155 µM (inactive)"}]}
{"compound": "Nc1nc(N)c2sc3nc(C(F)(F)F)cc(C(F)(F)F)c3c2n1", "values": [{"measurement": "IC50", "setting": "[6]", "value": "16.7 µM (active)"}, {"measurement": "IC50", "setting": "[7]", "value": "30 µM (inactive)"}]}
{"compound": "CCc1cccc(CC)c1NC(=O)c1cccc(S(=O)(=O)N2CCN(C)CC2)c1", "values": [{"measurement": "IC50", "setting": "[8]", "value": "8.43 µM (active)"}, {"measurement": "IC50", "setting": "[9]", "value": "7.52 µM (active)"}]}
{"compound": "Cc1cc(O)cc(O)c1/C=N/Cc1ccco1", "values": [{"measurement": "EC50", "setting": "[2]", "value": "21.9 µM (inactive)"}, {"measurement": "EC50", "setting": "[3]", "value": "> 99 µM (inactive)"}]}
{"compound": "Cn1c(=O)c2cc(NC(=S)NC3CCCCC3)ccc2n1C/C=C/c1ccccc1", "values": [{"measurement": "AC50", "setting": "[10]", "value": "> 100 µM (inactive)"}]}
{"compound": "Nc1cc(SCc2ccc(Cl)cc2Cl)ncn1", "values": [{"measurement": "EC50", "setting": "[2]", "value": "> 99 µM (inactive)"}, {"measurement": "EC50", "setting": "[3]", "value": "> 99 µM (inactive)"}]}
{"compound": "CCn1/c(=N\\C(=O)CS(=O)(=O)c2ccccc2)sc2cccc(OC)c21", "values": [{"measurement": "EC50", "setting": "[11]", "value": "> 60 µM (not active)"}, {"measurement": "AC50", "setting": "[12]", "value": "1.58 µM (active)"}, {"measurement": "IC50", "setting": "[13]", "value": "1.03 µM (active)"}, {"measurement": "EC50", "setting": "[14]", "value": "1.74 µM (active)"}, {"measurement": "AC50", "setting": "[15]", "value": "> 70 µM (inactive)"}, {"measurement": "AC50", "setting": "[16]", "value": "1.68 µM (active)"}]}
